From patent US20230339937A1, “CONDENSED RING COMPOUNDS THAT INHIBIT H-PGDS” (SATO PHARMACEUTICAL CO., LTD., priority 2020, published 2023) come the findings set out here.

By IC50 is commonly meant the concentration that gives 50% inhibition.

This assay has as its target T1, Recombinant human H-PGDS (Homo sapiens, UniProt O60760).
T1 construct: made in house; host or cells: E. coli
In words: H-PGDS inhibitory activity (prostaglandin D2 production from prostaglandin H2, measured by LC-MS/MS). In kind it is biochemical. The settings on record: recombinant human H-PGDS 1.0 nM expressed in E. coli; prostaglandin H2 25 μM; preincubated 15 minutes on ice, reacted on ice for 1 minute; concentration that inhibits prostaglandin D2 production by 50%. How it is done:
The H-PGDS inhibitory activity of each Example compound was measured according to the method reported by LIN, Jiang. et al. (NO 2007/041634).
Recombinant human H-PGDS (final concentration: 1.0 nM) expressed in E. coli was mixed in an assay buffer containing 20 mM Tris-HCl (pH 8.0), 2 mM magnesium chloride, 2 mM reduced glutathione, and 0.5 mg/mL γ-globulin, and 150 μL of the mixture was dispensed into a 8-strip PCR tube (BM Equipment Co., Ltd.). Test compounds (Example compounds) (16.5 μL) at various concentrations dissolved in DMSO were added and the mixture was preincubated for 15 minutes on ice.
Prostaglandin H2 (final concentration: 25 μM) (Cayman Chemical) was dispensed into another 8-strip PCR tube, and the solvent was dried and solidified using a vacuum concentrator (Thermo Fisher Scientific). To the dried and solidified prostaglandin H2 was added 50 μL of the assay buffer containing H-PGDS and each test compound after the preincubation, and the mixture was reacted on ice for 1 minute. 45 μL of this mixture was added to 45 μL of a stop solution (50 mM aqueous citric acid solution containing iron chloride at a final concentration of 4 mg/mL) to stop the reaction. Then, the reaction solution was deproteinized, added to a 96 square deep well plate (SHONANMARUHACHI STEC Co., Ltd.), and the prostaglandin D2 concentration in the reaction solution was measured by LC-MS/MS. ACQUITY (registered trademark) TQD (Waters) was used as a measuring instrument.
Prostaglandin Da production activity (f) in the group with each test compound when a value obtained by subtracting the amount of production of prostaglandin D2 in the group without enzyme, which is non-specific production of prostaglandin D2, from the amount of production of prostaglandin Da in the group without test compound (DMSO-addition group) in each 8-strip PCR tube is 100% was calculated.

T1 sequence (O60760 whole entry): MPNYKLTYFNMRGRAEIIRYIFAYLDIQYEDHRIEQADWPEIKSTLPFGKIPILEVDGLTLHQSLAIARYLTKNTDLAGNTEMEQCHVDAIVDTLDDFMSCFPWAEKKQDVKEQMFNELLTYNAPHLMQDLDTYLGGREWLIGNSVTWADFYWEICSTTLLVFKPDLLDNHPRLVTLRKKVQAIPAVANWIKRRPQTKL

As to `O=C(NC[C@H]1C[C@H](O)C1)c1ccc(-c2nccc3occc23)cc1` [Example 218, 4-(furo[3,2-c]pyridin-4-yl)-N-[(trans-3-hydroxycyclobutyl)methyl]benzamide], the IC50 is 21 nM.
Regarding `O=C(NC1CCNCC1)c1ccc(-c2nccc3occc23)cc1` [Example 142, 4-(furo[3,2-c]pyridin-4-yl)-N-(piperidin-4-yl)benzamide], the IC50 was 3.4 nM.
For the compound `O=C(NCC1CC1)c1ccc(-c2nccc3occc23)cc1` [Example 83, N-(cyclopropyl-methyl)-4-(furo[3,2-c]pyridin-4-yl)benzamide], the half-inhibitory concentration (IC50) was found to be 15 nM.
The value for `O=C(N[C@@H]1CC[C@@H](O)C1)c1ccc(-c2nccc3occc23)cc1` (relative stereo) [Example 268, 4-(furo[3,2-c]pyridin-4-yl)-N-(trans-3-hydroxycyclopenthyl)benzamide] was 6.4 nM.
To `CC(C)N(CCNC(=O)c1ccc(-c2nccc3[nH]ccc23)cc1)C(C)C` [Example 25, N-[2-(diisopropylamino)ethyl]-4-(1H-pyrrolo[3,2-c]pyridin-4-yl)benzamide] belongs 1.6 nM; to `Cc1cc2[nH]ccc2c(-c2ccc(C(=O)N[C@H]3CC[C@H](C(C)(C)O)CC3)cc2)n1` [Example 338, N-[trans-4-(2-hydroxypropan-2-yl)cyclohexyl]-4-(6-methyl-1H-pyrrolo[3,2-c]pyridin-4-yl)benzamide], 2.4 nM.
On to `COCCO[C@H]1CC[C@H](NC(=O)c2ccc(-c3nccc4occc34)cc2)CC1` [Example 311, 4-(furo[3,2-c]pyridin-4-yl)-N-[trans-4-(2-methoxyethoxy)cyclohexyl]benzamide], for which the IC50 turned out to be 2.5 nM.
For the compound `Cn1cnc(CO)c1N1CCC(NC(=O)c2ccc(-c3nccc4occc34)cc2)CC1` [Example 253, 4-(furo[3,2-c]pyridin-4-yl)-N-{1-[4-(hydroxymethyl)-1-methyl-1H-imidazol-5-yl]piperidin-4-yl}benzamide], the IC50 was found to be 1.1 nM.
As for `O=C(NC1CCC1)c1ccc(-c2nccc3[nH]ccc23)cc1` [Example 13, N-cyclobutyl-4-(1H-pyrrolo[3,2-c]pyridin-4-yl)benzamide], the 50% inhibitory concentration (IC50) is 0.58 nM.
To `O=C(Nc1ccccc1)c1ccc(-c2nccc3occc23)cc1` [Example 89, 4-(furo[3,2-c]pyridin-4-yl)-N-phenylbenzamide] belongs 3.7 nM.
For `Cc1cc(NC(=O)c2ccc(-c3nccc4occc34)cc2)ccc1S(N)(=O)=O` [Example 116, 4-(furo[3,2-c]pyridin-4-yl)-N-(3-methyl-4-sulfamoylphenyl) benzamide], the IC50 stood at 1.6 nM.
Turning to `Cn1nnnc1N1CCC(NC(=O)c2ccc(-c3nccc4occc34)cc2)CC1` [Example 99, 4-(furo[3,2-c]pyridin-4-yl)-N-[1-(1-methyl-1H-tetrazol-5-yl)piperidin-4-yl]benzamide], the IC50 was determined as 1.6 nM.
For `CC(C)(O)[C@H]1CC[C@H](NC(=O)c2ccc(-c3ncc(C(N)=O)c4occc34)cc2)CC1` [Example 140, 4-(4-([trans-4-(2-hydroxypropan-2-yl)cyclohexyl]carbamoyl)phenyl)furo[3,2-c]pyridine-7-carboxamide], the IC50 was determined as 224 nM.
For the compound `CC(O)CNC(=O)c1ccc(-c2nccc3sccc23)cc1` (centres unmarked) [Example 61, N-(2-hydroxypropyl)-4-(thieno[3,2-c]pyridin-4-yl)benzamide], the IC50 stood at 31 nM.
`O=C(N[C@H]1CCN(c2cccc(F)n2)C1)c1ccc(-c2nccc3occc23)cc1` [Example 226, (S)—N-[1-(6-fluoropyridin-2-yl)pyrrolidin-3-yl]-4-(furo[3,2-c]pyridin-4-yl)benzamide]: the half-inhibitory concentration (IC50) turned out to be 2.8 nM.
Consider `O=C(NC1CC1)c1ccc(-c2nccc3[nH]ccc23)cc1` [Example 14, N-cyclopropyl-4-(1H-pyrrolo [3,2-c]pyridin-4-yl)benzamide], for which the IC50 worked out at 1.4 nM.
With `O=C(NC1CCN(c2nncs2)CC1)c1ccc(-c2nccc3occc23)cc1` [Example 237, N-[1-(1,3,4-thiadiazol-2-yl)piperidin-4-yl]-4-(furo[3,2-c]pyridin-4-yl)benzamide], the IC50 worked out at 1.2 nM.
